From article PMC9186491, “Novel Small Molecule Tyrosine Kinase 2 Pseudokinase Ligands Block Cytokine-Induced TYK2-Mediated Signaling Pathways” (Frontiers in Immunology, 2022)

Experiments:
JAK1 JH1 kinase domain = biological target: T1, JAK1 JH1 kinase domain (Homo sapiens, UniProt P23458); test: KdELECT competition binding assay, JAK1 JH1; details: read-out: JAK Binding Selectivity (Kd) Catalytical Domain (JH1) JAK1
T1 construct: purchased Eurofins DiscoverX Corporation (contract assay)
Method: (§1) The KdELECT competition assays were performed to test the binding affinity of compounds to the JH1 kinase region or JH2 pseudokinase region in TYK2 or JAK by ligand competition with JH1 or JH2 protein segments. The assay was carried out at Eurofins DiscoverX Corporation following the established standard protocol (DiscoverX, San Diego, CA). In this assay, compounds that bind to the kinase or pseudokinase protein regions prevent the protein binding to the immobilized ligand and reduce the amount of kinase matter captured on the solid surface. […] Dissociation constants (Kds) for test compound-kinase interactions are calculated by measuring the amount of kinase captured on the solid support as a function of the test compound concentration. […] The ligated beads were blocked with excess biotin and washed with blocking buffer to remove unbound ligand and to reduce nonspecific binding. […] All reactions were performed in polypropylene 384-well plates with a final volume of 20 μL. […] The beads were then re-suspended in the elution buffer and incubated at room temperature with shaking for 30 minutes. The kinase concentration in the eluant was measured by qPCR. Two replicates were performed and averaged to obtain the Kd measurement.

hERG = hERG (Homo sapiens, UniProt Q12809); test: hERG IC50
Sequence of hERG (Q12809 whole entry): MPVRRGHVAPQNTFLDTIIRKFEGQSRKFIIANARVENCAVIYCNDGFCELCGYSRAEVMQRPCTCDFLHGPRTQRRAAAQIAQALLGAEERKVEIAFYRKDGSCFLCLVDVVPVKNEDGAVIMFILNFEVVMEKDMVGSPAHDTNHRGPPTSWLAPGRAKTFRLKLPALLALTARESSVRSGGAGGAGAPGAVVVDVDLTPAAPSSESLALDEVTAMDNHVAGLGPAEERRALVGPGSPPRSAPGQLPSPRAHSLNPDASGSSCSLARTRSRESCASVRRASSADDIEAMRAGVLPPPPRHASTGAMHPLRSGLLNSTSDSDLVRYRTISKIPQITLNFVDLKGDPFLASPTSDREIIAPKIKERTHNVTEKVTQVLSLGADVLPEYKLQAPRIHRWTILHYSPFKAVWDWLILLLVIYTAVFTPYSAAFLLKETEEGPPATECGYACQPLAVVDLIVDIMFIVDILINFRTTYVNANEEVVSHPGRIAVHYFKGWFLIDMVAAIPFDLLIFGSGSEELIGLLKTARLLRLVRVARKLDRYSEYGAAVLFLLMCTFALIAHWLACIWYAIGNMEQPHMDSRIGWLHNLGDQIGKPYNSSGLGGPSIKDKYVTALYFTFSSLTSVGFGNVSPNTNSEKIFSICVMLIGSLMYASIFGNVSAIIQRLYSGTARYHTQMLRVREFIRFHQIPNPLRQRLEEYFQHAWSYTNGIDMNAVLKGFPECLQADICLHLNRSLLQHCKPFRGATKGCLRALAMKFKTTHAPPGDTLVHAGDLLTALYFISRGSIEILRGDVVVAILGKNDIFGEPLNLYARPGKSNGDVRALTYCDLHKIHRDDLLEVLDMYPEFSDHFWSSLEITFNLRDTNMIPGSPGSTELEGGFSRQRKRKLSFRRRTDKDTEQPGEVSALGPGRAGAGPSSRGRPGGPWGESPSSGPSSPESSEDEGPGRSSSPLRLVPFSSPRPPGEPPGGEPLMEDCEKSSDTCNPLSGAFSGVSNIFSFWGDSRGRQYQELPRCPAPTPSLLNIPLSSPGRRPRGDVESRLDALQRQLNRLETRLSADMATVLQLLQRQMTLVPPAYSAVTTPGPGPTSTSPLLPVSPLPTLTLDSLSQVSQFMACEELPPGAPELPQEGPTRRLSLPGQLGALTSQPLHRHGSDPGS

[1] = system: IFNα-induced CXCL10 production in human whole blood; test: IFNα-induced CXCL10 production in human whole blood; type: cell-based; details: human whole blood, IFNα 16 hours; read-out: TYK2-associated IFNα-induced-CXCL10 Production in Human Whole Blood: IC50
Method: Human whole blood [drawn with Ethylenediaminetetraacetic acid (EDTA) as anti-coagulant] was obtained from Zen-Bio Inc. (Durham, NC). […] The plasma was collected for detection of C-X-C motif chemokine 10 (CXCL10, IP10) secretion. CXCL10 was measured by Human CXCL10/IP-10 AlphaLISA Kit (PerkinElmer, #AL259 C/F) according to the manufacturer’s instructions.

[2] = system: JAK1-dependent IL6-induced phosphorylation of STAT3 (Tyr705) in TF1 cells; test: JAK cellular selectivity assay, IL6-pSTAT3 (JAK1); type: cell-based; details: Homo sapiens, TF-1; TF1 cells; read-out: JAK Cellular Selectivity (IC50) IL6-pSTAT3 (JAK1)
Method: The cells were then ready for the assay after incubating for 2 hours in a humidified, 5% CO2 cell culture incubator at 37°C. […] The curve fit was generated, and statistical analysis was performed using GraphPad Prism. IC50 values were derived by non-linear regression analysis and defined as the compound concentration at which the response level was reduced to half of its maximum relative to a DMSO control.

JAK2 JH1 kinase domain = biological target: T2, JAK2 JH1 kinase domain (Homo sapiens, UniProt O60674); test: KdELECT competition binding assay, JAK2 JH1; details: read-out: JAK Binding Selectivity (Kd) Catalytical Domain (JH1) JAK2
T2 construct: purchased Eurofins DiscoverX Corporation (contract assay)
T2 sequence (O60674 849-1124 limits assumed): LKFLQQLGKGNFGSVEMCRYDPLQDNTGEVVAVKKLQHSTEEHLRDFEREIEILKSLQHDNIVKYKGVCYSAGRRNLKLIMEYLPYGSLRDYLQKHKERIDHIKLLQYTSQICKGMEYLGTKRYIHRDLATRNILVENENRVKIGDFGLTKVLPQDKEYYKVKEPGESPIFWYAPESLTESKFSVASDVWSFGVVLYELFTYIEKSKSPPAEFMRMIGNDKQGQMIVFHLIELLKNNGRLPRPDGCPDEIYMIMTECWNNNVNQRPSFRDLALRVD
Method: as §1

LM T1/2, R = type: in vitro ADME; details: rat, liver microsomes

T1 sequence (P23458 875-1153 limits assumed): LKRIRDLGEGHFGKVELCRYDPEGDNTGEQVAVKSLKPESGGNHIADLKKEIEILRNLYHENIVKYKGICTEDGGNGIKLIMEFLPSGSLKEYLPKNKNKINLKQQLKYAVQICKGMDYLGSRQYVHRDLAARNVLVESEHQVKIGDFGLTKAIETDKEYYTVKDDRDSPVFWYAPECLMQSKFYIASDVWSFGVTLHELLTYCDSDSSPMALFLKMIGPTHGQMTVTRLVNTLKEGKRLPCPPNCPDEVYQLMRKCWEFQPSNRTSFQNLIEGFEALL

SMILES	Kd (JAK1 JH1 kinase domain)	IC50 (hERG)	IC50 [1]	IC50 [2]	Kd (JAK2 JH1 kinase domain)	half-life (LM T1/2, R)
CNC(=O)c1nnc(NC(=O)N2CCC2)cc1Nc1cccc(-c2ncn(C)n2)c1OC [SHR8751]	> 20 µM	> 30 µM	0.46 µM	5.8 ± 3.7 µM	6.5 ± 1.7 µM	> 1.12 h
CNC(=O)c1nnc(NC(=O)C2CC2)c2[nH]c(-c3ccc(N)cc3OC)cc12 [SHR2396]	> 20 µM	–	–	0.15 ± 0.059 µM	> 20 µM	> 1.12 h
[2H]C([2H])([2H])NC(=O)c1nnc(NC(=O)N2CCC2)cc1Nc1cccc(-c2ncn(C)n2)c1OC [SHR9332]	> 20 µM	> 30 µM	0.48 µM	2.8 ± 1.7 µM	2 µM	> 1.12 h
